Assay results published in PubChem BioAssay (NCI).
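Test compounds were applied to cells in 96-well plates for 48 hours at 5 doses. GI50 marks 50% less growth. The concentration for full growth arrest is given as TGI.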

Legend:
Assay in all cases: growth of human tumour cells (NCI), 48 h
[1] = system: HOP-92 NSCLC
[2] = system: MALME-3M melanoma
[3] = system: NCI-H23 lung
[4] = system: OVCAR-5 ovarian
[5] = system: RXF 393 renal
[6] = system: SF-295 CNS
[7] = system: SK-OV-3 ovarian
[8] = system: SW-620 colon
[9] = system: BT-549 breast
[10] = system: NCI/ADR-RES ovarian

Structure (SMILES)	TGI [1] [µM]	TGI [2] [µM]	TGI [3] [µM]	TGI [4] [µM]	TGI [5] [µM]	TGI [6] [µM]	TGI [7] [µM]	TGI [8] [µM]	TGI [9] [µM]	TGI [10] [µM]	GI50 [9] [µM]	GI50 [3] [µM]	GI50 [10] [µM]	GI50 [4] [µM]	GI50 [6] [µM]	GI50 [7] [µM]	GI50 [8] [µM]	GI50 [1] [µM]	GI50 [2] [µM]	GI50 [5] [µM]
CN(C)CCNC(=O)c1c2ccccc2cc2ccccc12	> 100	> 100	> 100	> 100	99	> 100	> 100	> 100	–	–	–	–	–	–	–	–	–	–	–	–
CN(C)CC1CCCCCC(Br)C1=O (configuration not stated)	22.2	17.6	29.6	> 52.2	32.6	> 100	> 100	12.7	26.4	37.8	–	–	–	–	–	–	–	–	–	–
COc1ccc(-c2nc(-c3ccccn3)c(-c3ccccn3)n2CC(C)C)cc1OC1CCCC1	–	–	> 165	> 165	–	106	116	> 165	> 165	> 165	50	28.5	6.96	26.5	9.56	27.6	42	–	–	–
Cc1cccc(C(C)C)c1NC(=O)CCl	> 100	> 100	80	> 100	75.5	> 100	> 100	> 100	–	–	–	–	–	–	–	–	–	–	–	–
CCSc1ccc([C@@H]2[C@@H](N)C(=O)N2c2cc(OC)c(OC)c(OC)c2)cc1	> 100	> 100	> 100	> 100	> 100	> 100	> 100	> 100	> 100	> 100	0.0592	14.3	0.13	0.892	0.0515	0.0545	0.0476	30.2	> 100	0.245
CCOC(=O)C(=O)Nc1ccccc1OCC	> 100	> 100	> 100	> 100	> 100	> 100	> 100	> 100	–	–	–	–	–	–	–	–	–	–	–	–
CCOC(OCC)C(CC)[Se]c1ccccc1 (configuration not stated)	> 100	> 100	73.9	> 100	> 100	> 100	> 100	–	–	–	–	–	–	–	–	–	–	–	–	–
Nc1nc(-c2ccc(Cl)cc2)cc(-c2ccc(Cl)cc2)c1-c1nc2ccccc2o1	21.2	29.9	37.3	39.1	33.5	40.3	41	33.3	33.4	30.9	18.1	17.8	14.5	20.7	21.7	22.4	17.5	6.24	14.4	14.1
O=C(O)c1cn(C2CC2)c2cc(N3CCNCC3)c(F)cc2c1=O	–	> 100	> 100	> 100	> 100	–	> 100	> 100	> 100	> 100	> 100	> 100	> 100	> 100	–	> 100	> 100	–	74.6	> 100
Nc1c(C(=O)NC23CC4CC(CC(C4)C2)C3)[n+]([O-])c2ccccc2[n+]1[O-]	> 100	> 100	> 100	> 100	–	> 100	> 100	> 100	–	–	–	–	–	–	–	–	–	–	–	–
O=S1c2ccccc2NC(c2ccc3ccccc3c2)CC1c1ccccc1 (configuration not stated)	–	> 100	40.1	> 100	30.5	55	> 100	42.7	–	–	–	–	–	–	–	–	–	–	–	–
CN1C(=O)CCC1c1ccc2c(c1)oc(=O)n2C (configuration not stated)	–	> 100	> 100	> 100	> 100	> 100	> 100	> 100	–	–	–	–	–	–	–	–	–	–	–	–
COc1ccc(-c2nnc(SCC(=O)Nc3ccc(C(=O)/C=C/c4cc(OC)c(OC)c(OC)c4)cc3)n2-c2ccccc2)cc1OC	–	> 10	> 10	> 10	6.85	> 10	> 10	> 10	7.99	> 10	1.98	8.27	> 10	> 10	> 10	6.06	2.45	–	> 10	2.13
CNc1ccc([N+](=O)[O-])c2c(NCCCN(C)C)ccnc12	–	> 100	> 100	> 100	–	> 100	> 100	> 100	–	–	–	–	–	–	–	–	–	–	–	–
CCOc1cc2c(=O)oc3c(OC)ccc4ccc(c1OC)c2c43	> 100	> 100	> 100	> 100	> 100	> 100	> 100	> 100	–	> 100	–	–	–	–	–	–	–	–	–	–
CCOc1ccc(NCC2CC/C(=C\c3ccc(Cl)cc3)C2=O)cc1 (configuration not stated)	41.6	> 87.5	> 73.4	> 100	> 64.6	> 100	> 100	39.6	–	–	–	–	–	–	–	–	–	–	–	–
COc1ccc(OC(C)C(=O)O)c2c1CCCC2=O (configuration not stated)	–	> 100	> 100	> 100	> 100	> 100	> 100	> 100	–	–	–	–	–	–	–	–	–	–	–	–
O=c1ccn(C2(CO)C=C(CO)C(O)C2O)c(=O)[nH]1 (configuration not stated)	–	> 25.7	–	–	> 25.7	–	> 25.7	> 25.7	–	–	–	–	–	–	–	–	–	–	–	–
COc1ccccc1NC(=O)C1=C(C)NC(C)=C(C(=O)Nc2ccccc2OC)C1c1cccc2ccccc12	7.87	> 100	> 100	> 100	> 100	> 100	> 100	> 100	–	–	–	–	–	–	–	–	–	–	–	–
CC(C)C[CH2][Ge]([CH2]CC(C)C)([CH2]CC(C)C)[CH2]CC(C)C	–	–	> 100	> 100	–	> 100	> 100	> 100	> 100	> 100	> 100	> 100	> 100	> 100	> 100	> 100	> 100	–	–	–
OCC(O)COc1c(Cl)cc(Cl)cc1Cl (configuration not stated)	> 100	> 100	> 100	> 100	> 100	> 100	> 100	> 51.9	–	–	–	–	–	–	–	–	–	–	–	–
ClC1c2ccccc2C2(c3ccccc3)OOC1(c1ccccc1)O2 (configuration not stated)	0.987	7.14	3.57	11.2	2.83	5.85	–	2.96	–	–	–	–	–	–	–	–	–	–	–	–

Structure (SMILES)	TGI [1] [µM]	TGI [2] [µM]	TGI [3] [µM]	TGI [4] [µM]	TGI [5] [µM]	TGI [6] [µM]	TGI [7] [µM]	TGI [8] [µM]	TGI [9] [µM]	TGI [10] [µM]	GI50 [9] [µM]	GI50 [3] [µM]	GI50 [10] [µM]	GI50 [4] [µM]	GI50 [6] [µM]	GI50 [7] [µM]	GI50 [8] [µM]	GI50 [1] [µM]	GI50 [2] [µM]	GI50 [5] [µM]
CN(C(=O)C12C3C4C1C1C2C3C41C(O)C(C)(C)C)C(C)(C)C (configuration not stated)	–	> 100	> 100	> 100	–	> 100	> 100	> 100	–	–	–	–	–	–	–	–	–	–	–	–
NC(CCc1ncc(-c2ccccc2)s1)C(=O)O (configuration not stated)	> 100	> 100	> 100	–	> 100	> 100	> 100	> 100	–	–	–	–	–	–	–	–	–	–	–	–
O=C(Oc1ccccc1Cl)c1ccccc1Nc1cccc(C(F)(F)F)c1	38.2	–	73.7	94.7	43.9	54.3	> 100	54.4	52.6	44.4	18.3	19.8	19	30.6	24.8	47.5	8.07	5.81	–	13.9
COc1ccc(C(=O)/C=C/c2cc(-c3ccc4c(c3)OCO4)n[nH]2)cc1OC	8.11	22.8	19.6	23.2	5.39	6.15	26.4	4.81	4.21	–	1.97	4.12	–	3.36	2.51	3.97	2.05	2.16	7.32	2.42
O=C1CCCC(O)=C1SC1=C(O)CCCC1=O	> 100	> 100	> 100	> 100	> 100	> 100	> 100	> 100	–	–	–	–	–	–	–	–	–	–	–	–
CCCC(C)c1c(Cl)nc(Cl)nc1Cl (configuration not stated)	–	55.6	18	39	22.4	37	43.8	> 100	5.16	> 100	–	–	–	–	–	–	–	–	–	–
CC(O)C(NC(=O)c1ccccc1)C(=O)N(Cc1ccccc1)Cc1ccccc1 (configuration not stated)	> 100	> 100	> 100	> 100	–	> 100	> 100	> 100	–	–	–	–	–	–	–	–	–	–	–	–
Cc1cc(NCc2cc(Nc3ccnc4cc(Cl)ccc34)ccc2F)nc(N2CCSCC2)n1	2.32	–	5.24	8.25	3.35	2.76	3.64	–	–	4.02	–	1.78	1.55	2.21	1.31	1.82	–	0.998	–	1.52
CCCC(=O)c1ccc(=O)n(C)c1	> 100	> 100	> 100	> 100	> 100	> 100	> 100	> 100	–	–	–	–	–	–	–	–	–	–	–	–
Cc1cn([C@H]2C[C@H](O)[C@@H](CO)O2)c(=O)nc1N	–	> 100	> 100	> 100	–	> 100	> 100	> 100	> 100	> 100	–	–	–	–	–	–	–	–	–	–
O=C(NO)c1ccc(Cn2c(=O)n(-c3ccccc3)c(=O)c3ccccc32)cc1	4.18	2.34	–	5.28	2.66	2.98	3.17	3.03	3.92	39.5	1.55	–	2.67	1.08	1.38	1.3	0.667	1.6	0.473	1.11
O=C1CCNC(=O)NC1	> 100	> 100	–	> 100	> 100	> 100	> 100	> 100	–	–	–	–	–	–	–	–	–	–	–	–
COc1ccc2c(c1)C(=O)c1c-2c(N2CCN(C(=O)CNCCN(C)C)CC2)nc2ccccc12	4.15	4.94	–	5.82	–	5.34	27.5	2.53	3.43	19.9	1.75	–	4.28	2.2	2.48	14	1.27	1.57	1.96	–
N#Cc1cc([N+](=O)[O-])ccc1NC(=O)C(=O)C(C(=O)c1ccc2ccccc2c1)C1OCc2ccccc21 (configuration not stated)	21.6	26.8	14.9	29.2	12.4	23.9	> 100	41.1	–	–	–	–	–	–	–	–	–	–	–	–
c1ccc2c(c1)Sc1ccccc1N2C1CN2CCC1CC2 (configuration not stated)	–	30.5	74.5	–	–	32.2	35.4	33.2	–	–	–	–	–	–	–	–	–	–	–	–
CC(=O)OCCOCNC(=S)N/N=C(\C)c1cccs1	–	> 100	> 100	> 100	> 100	> 100	> 100	> 100	–	–	–	–	–	–	–	–	–	–	–	–
CC(C)CN1CC(C)C(=O)NC1=O (configuration not stated)	> 100	> 100	> 100	> 100	> 100	> 100	> 100	> 100	–	–	–	–	–	–	–	–	–	–	–	–
O=C(Cc1csc2nc(-c3ccc(Br)cc3)cn12)N/N=C/c1ccc(Cl)cc1Cl	> 100	–	56.4	67.3	85.1	> 100	> 100	60.2	76.9	52.3	25.9	25.6	17.2	28.6	34.7	> 100	23	28.2	–	28.4
O=C(Oc1ccc2c(-c3ccccc3)c(C(=O)Nc3ccc(Cl)cc3)c(=O)oc2c1)c1ccccc1	–	> 100	> 100	–	> 100	> 100	> 100	> 100	–	–	–	–	–	–	–	–	–	–	–	–
C[N+](C)(C)CC(CC(=O)[O-])C1CC1 (configuration not stated)	> 100	> 100	> 100	> 100	> 100	> 100	> 100	> 100	–	–	–	–	–	–	–	–	–	–	–	–
C=C1CCC2C(C)(CO)C(O)CCC2(C)C1C/C=C1/CCOC1=O (configuration not stated)	> 100	> 100	> 100	> 100	–	> 100	> 100	> 100	–	–	–	–	–	–	–	–	–	–	–	–
